The values that follow come from BindingDB's records for doi:10.1021/jm00099a007 (Merck Research Laboratories, 1992).

The target of this assay is T1, Gag-Pol polyprotein [588-1027]/[588-1147] (Human immunodeficiency virus 1, UniProt P04585).
T1 construct: 588-1027; 588-1147
As to the kind of experiment: HIV-1 RT Assay.

For the compound `O=c1[nH]c2ccccc2cc1NCc1ccc2ccccc2c1` [3-[(naphthalen-2-ylmethyl)amino]-1,2-dihydroquinolin-2-one], the IC50 was greater than 300 µM.

One may read the IC50 as the concentration needed to halve the response being measured. Low readings indicate greater potency in that assay, high ones weaker potency in that assay.
